# Results taken from ChEMBL document CHEMBL1150383, “Synthesis and pharmacological evaluation of peptide-mimetic protease-activated receptor-1 antagonists containing novel heterocyclic scaffolds” (Bioorg Med Chem, 2008).
# The source made the active and inactive calls. The rule behind the calls is not given here.
# Legend:
# [1] = biological target: T1, Proteinase-activated receptor 1 (Rattus norvegicus) (UniProt P26824); experiment: Antagonist activity at PAR1 receptor assessed as reduction of PAR1AP-induced aortic ring contraction in Wistar rat at 10 to 100 uM after 15 mins; type: functional
# T1 sequence (whole entry): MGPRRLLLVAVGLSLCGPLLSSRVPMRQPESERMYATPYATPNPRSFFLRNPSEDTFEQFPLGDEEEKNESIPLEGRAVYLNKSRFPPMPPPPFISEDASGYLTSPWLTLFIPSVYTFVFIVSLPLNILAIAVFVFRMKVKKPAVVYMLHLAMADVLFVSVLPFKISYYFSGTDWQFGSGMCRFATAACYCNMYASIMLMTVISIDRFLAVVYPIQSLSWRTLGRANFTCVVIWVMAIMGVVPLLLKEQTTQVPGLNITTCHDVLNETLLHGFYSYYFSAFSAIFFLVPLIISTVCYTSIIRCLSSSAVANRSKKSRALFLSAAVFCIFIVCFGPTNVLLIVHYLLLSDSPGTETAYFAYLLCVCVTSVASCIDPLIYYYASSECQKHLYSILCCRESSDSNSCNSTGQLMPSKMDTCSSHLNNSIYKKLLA
# [2] = biological target: T2, Proteinase-activated receptor 1 (Homo sapiens) (UniProt P25116); experiment: Antagonist activity at PAR1 receptor assessed as inhibition of PAR1AP-induced platelet aggregation in human blood after 10 mins by chronolog dual channel aggregometry; type: functional
# T2 sequence (whole entry): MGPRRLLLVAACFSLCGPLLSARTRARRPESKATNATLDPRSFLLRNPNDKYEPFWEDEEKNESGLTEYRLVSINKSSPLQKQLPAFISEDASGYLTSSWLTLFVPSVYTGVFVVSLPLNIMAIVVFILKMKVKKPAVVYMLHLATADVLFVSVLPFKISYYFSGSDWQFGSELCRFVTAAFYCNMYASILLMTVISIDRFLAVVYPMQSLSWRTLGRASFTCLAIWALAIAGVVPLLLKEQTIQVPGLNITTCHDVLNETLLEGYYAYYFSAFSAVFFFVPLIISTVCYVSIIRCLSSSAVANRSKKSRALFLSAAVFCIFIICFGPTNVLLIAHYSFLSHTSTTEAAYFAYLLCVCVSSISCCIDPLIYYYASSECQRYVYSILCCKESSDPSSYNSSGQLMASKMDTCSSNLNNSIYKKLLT
Activity [1],Activity [2],IC75 [2] [nM],Structure (SMILES)
inactive,inactive,,COc1ccc(C[C@H](NC(=O)Nc2ccc3c(c2)c(CN2CCCC2)c(C)n3Cc2c(Cl)cccc2Cl)C(=O)N[C@@H](CCCNC(=N)N)C(=O)NCc2ccccc2)cc1
Active,,800,Cc1c(CN2CCCC2)c2ccc(NC(=O)N[C@@H](Cc3ccc4ccccc4c3)C(=O)N[C@@H](CCCNC(=N)N)C(=O)NCc3ccccc3)cc2n1Cc1c(Cl)cccc1Cl
94 dyn/mg,,100,COc1ccc(C[C@H](NC(=O)Nc2ccc3c(CN4CCCC4)cn(Cc4c(Cl)cccc4Cl)c3c2)C(=O)N[C@@H](CCCNC(=N)N)C(=O)NCc2ccccc2)cc1
Active,,20,COc1ccc(C[C@H](NC(=O)Nc2ccc3c(CN4CCCC4)c(C)n(Cc4c(Cl)cccc4Cl)c3c2)C(=O)N[C@@H](CCCNC(=N)N)C(=O)NCc2ccccc2)cc1

# More lines, now with the values behind:
Structure (SMILES),Activity [1],Activity [2],IC75 [2] [nM]
Cc1c(CN2CCCC2)c2cc(NC(=O)N[C@@H](Cc3ccc(F)c(F)c3)C(=O)N[C@@H](CCCNC(=N)N)C(=O)NCc3ccccc3)ccc2n1Cc1c(Cl)cccc1Cl,inactive,inactive,
Cc1c(CN2CCCC2)c2ccc(NC(=O)N[C@@H](Cc3ccc(F)c(F)c3)C(=O)N[C@@H](CCCNC(=N)N)C(=O)NCc3ccccc3)cc2n1Cc1c(Cl)cccc1Cl,31 dyn/mg,,50
Cc1c(CN2CCCC2)c2cc(NC(=O)N[C@@H](Cc3ccc4ccccc4c3)C(=O)N[C@@H](CCCNC(=N)N)C(=O)NCc3ccccc3)ccc2n1Cc1c(Cl)cccc1Cl,inactive,inactive,
Cc1c(CN2CCCC2)c2cc(NC(=O)N[C@@H](Cc3cccc4ccccc34)C(=O)N[C@@H](CCCNC(=N)N)C(=O)NCc3ccccc3)ccc2n1Cc1c(Cl)cccc1Cl,inactive,inactive,
